Read-outs that look alike come from different tables or passages of the source.
Legend:
[1] = test system: HI650 (Lung Adenocarcinoma); test: Cell viability analysis, lung cancer HI650; assay type: cell-based, human
[2] = test system: A549 (Lung Adenocarcinoma); test: Cell viability analysis, lung cancer A549; assay type: cell-based, human
[3] = test system: AGS (Gastric Adenocarcinoma); test: Cell viability analysis, gastric cancer AGS; assay type: cell-based, human
[4] = test system: MKN-45 (Gastric Adenocarcinoma); test: Cell viability analysis, gastric cancer MKN-45; assay type: cell-based, human
[5] = test system: HepG2 (Hepatocellular Carcinoma); test: Cell viability analysis, hepatic cancer HepG2; assay type: cell-based, human
[6] = test system: Hep3B (hepatocellular carcinoma); test: Cell viability analysis, hepatic cancer Hep3B; assay type: cell-based, human
[7] = test system: LoVo (Colorectal Adenocarcinoma); test: Cell viability analysis, colon cancer LoVo; assay type: cell-based, human
[8] = test system: A375 (Amelanotic Melanoma); test: Cell viability analysis, skin cancer A375; assay type: cell-based, human
[9] = test system: BCC (basal cell carcinoma); test: Cell viability analysis, skin cancer BCC; assay type: cell-based, human
[10] = test system: HeLa (Cervix Adenocarcinoma); test: Cell viability analysis, cervical cancer HeLa; assay type: cell-based, human
[11] = test system: C-33A (Cervical carcinoma); test: Cell viability analysis, cervical cancer C-33A; assay type: cell-based, human
[12] = test system: PC3 (p53−) (Prostate Adenocarcinoma); test: Cell viability analysis, prostate cancer PC3; assay type: cell-based, human
[13] = test system: TSGH-8301 (Urinary Bladder Carcinoma); test: Cell viability analysis, bladder cancer TSGH-8301; assay type: cell-based, human
[14] = test system: T24; test: Cell viability analysis, bladder cancer T24; assay type: cell-based, human
[15] = test system: MCF7 (Mammary Gland, Adenocarcinoma); test: Cell viability analysis, breast cancer MCF7; assay type: cell-based, human
[16] = test system: MDA-MB-231 (Mammary Gland, Adenocarcinoma); test: Cell viability analysis, breast cancer MDA-MB-231; assay type: cell-based, human
[17] = test system: BxPC-3; test: Cell viability analysis, pancreatic cancer BxPC-3; assay type: cell-based, human
[18] = test system: AsPC-1; test: Cell viability analysis, pancreatic cancer AsPC-1; assay type: cell-based, human
[19] = test system: NIH: OVCAR-3; test: Cell viability analysis, ovarian cancer NIH: OVCAR-3; assay type: cell-based, human
[20] = test system: TOV-21G; test: Cell viability analysis, ovarian cancer TOV-21G; assay type: cell-based, human
[21] = test system: SAS (Tongue squamous cell carcinoma); test: Cell viability analysis, tongue cancer SAS; assay type: cell-based, human
[22] = test system: U-2OS; test: Cell viability analysis, osteosarcoma U-2OS; assay type: cell-based, human
[23] = test system: 786-O (Renal adenocarcinoma); test: Cell viability analysis, renal cancer 786-O; assay type: cell-based, human
[24] = test system: HCT116 (p53+) (Colorectal Carcinoma)
[25] = NIH-OVCAR-3, repeated experiment

## CCCSc1ccc2[nH]c(NC(=O)OC)nc2c1 [Albendazole (Albenza)]
[1]; H1650, repeated experiment
  The results of antibiotic drug inhibiting cancer cell lines (cell viability analysis), H1650: 41.75
[2]; A549, repeated experiment
  The results of antibiotic drug inhibiting cancer cell lines (cell viability analysis), A549: 24.2
[3]; AGS, repeated experiment
  The results of antibiotic drug inhibiting cancer cell lines (cell viability analysis), AGS: 29.46
[4]; MKN-45, repeated experiment
  The results of antibiotic drug inhibiting cancer cell lines (cell viability analysis), MKN-45: 62.34
[5]; HepG2, repeated experiment
  The results of antibiotic drug inhibiting cancer cell lines (cell viability analysis), HepG2: 62.7
[6]; Hep3B, repeated experiment
  The results of antibiotic drug inhibiting cancer cell lines (cell viability analysis), Hep3B: 61.38
[7]; LoVo, repeated experiment
  The results of antibiotic drug inhibiting cancer cell lines (cell viability analysis), LoVo: 50.79
[8]; A375, repeated experiment
  The results of antibiotic drug inhibiting cancer cell lines (cell viability analysis), A375: 36.21
[9]; BCC, repeated experiment
  The results of antibiotic drug inhibiting cancer cell lines (cell viability analysis), BCC: 31.25
[10]; HeLa, repeated experiment
  The results of antibiotic drug inhibiting cancer cell lines (cell viability analysis), HeLa: 29.9
[11]; C-33A, repeated experiment
  The results of antibiotic drug inhibiting cancer cell lines (cell viability analysis), C-33A: 42.62
[12]; PC-3, repeated experiment
  The results of antibiotic drug inhibiting cancer cell lines (cell viability analysis), PC-3: 37.99
[13]; TSGH-8301, repeated experiment
  The results of antibiotic drug inhibiting cancer cell lines (cell viability analysis), TSGH-8301: 46.61
[14]; T24, repeated experiment
  The results of antibiotic drug inhibiting cancer cell lines (cell viability analysis), T24: 37.98
[15]; MCF-7, repeated experiment
  The results of antibiotic drug inhibiting cancer cell lines (cell viability analysis), MCF-7: 69.83
[16]; MDA-MB231, repeated experiment
  The results of antibiotic drug inhibiting cancer cell lines (cell viability analysis), MDA-MB231: 44.52
[17]; BxPC-3, repeated experiment
  The results of antibiotic drug inhibiting cancer cell lines (cell viability analysis), BxPC-3: 36.62
[18]; AsPC-1, repeated experiment
  The results of antibiotic drug inhibiting cancer cell lines (cell viability analysis), AsPC-1: 35.28
[19]; [25]
  The results of antibiotic drug inhibiting cancer cell lines (cell viability analysis), NIH-OVCAR-3: 52.49
[20]; TOV-21G, repeated experiment
  The results of antibiotic drug inhibiting cancer cell lines (cell viability analysis), TOV-21G: 29.79
[21]; SAS, repeated experiment
  The results of antibiotic drug inhibiting cancer cell lines (cell viability analysis), SAS: 36.08
[22]; U2OS, repeated experiment
  The results of antibiotic drug inhibiting cancer cell lines (cell viability analysis), U2OS: 50.07
[23]; 786-O, repeated experiment
  The results of antibiotic drug inhibiting cancer cell lines (cell viability analysis), 786-O: 21.55
[24]
  viability: 20.9%

## CS(=O)(=O)c1ccc([C@@H](O)[C@@H](CO)NC(=O)C(Cl)Cl)cc1 [Thiamphenicol (Thiophenicol)]
[1]
  The results of antibiotic drug inhibiting cancer cell lines (cell viability analysis), H1650: 94.92
[2]
  The results of antibiotic drug inhibiting cancer cell lines (cell viability analysis), A549: 97.41
[3]
  The results of antibiotic drug inhibiting cancer cell lines (cell viability analysis), AGS: 140.3
[4]
  The results of antibiotic drug inhibiting cancer cell lines (cell viability analysis), MKN-45: 177
[5]
  The results of antibiotic drug inhibiting cancer cell lines (cell viability analysis), HepG2: 143.9
[6]
  The results of antibiotic drug inhibiting cancer cell lines (cell viability analysis), Hep3B: 103.3
[7]
  The results of antibiotic drug inhibiting cancer cell lines (cell viability analysis), LoVo: 96.08
[8]
  The results of antibiotic drug inhibiting cancer cell lines (cell viability analysis), A375: 112
[9]
  The results of antibiotic drug inhibiting cancer cell lines (cell viability analysis), BCC: 111.8
[10]
  The results of antibiotic drug inhibiting cancer cell lines (cell viability analysis), HeLa: 90.82
[11]
  The results of antibiotic drug inhibiting cancer cell lines (cell viability analysis), C-33A: 140.2
[12]
  The results of antibiotic drug inhibiting cancer cell lines (cell viability analysis), PC-3: 150.2
[13]
  The results of antibiotic drug inhibiting cancer cell lines (cell viability analysis), TSGH-8301: 136.8
[14]
  The results of antibiotic drug inhibiting cancer cell lines (cell viability analysis), T24: 164
[15]
  The results of antibiotic drug inhibiting cancer cell lines (cell viability analysis), MCF-7: 89.24
[16]
  The results of antibiotic drug inhibiting cancer cell lines (cell viability analysis), MDA-MB231: 95.4
[17]
  The results of antibiotic drug inhibiting cancer cell lines (cell viability analysis), BxPC-3: 86.08
[18]
  The results of antibiotic drug inhibiting cancer cell lines (cell viability analysis), AsPC-1: 102.5
[19]
  The results of antibiotic drug inhibiting cancer cell lines (cell viability analysis), NIH-OVCAR-3: 115.7
[20]
  The results of antibiotic drug inhibiting cancer cell lines (cell viability analysis), TOV-21G: 105.7
[21]
  The results of antibiotic drug inhibiting cancer cell lines (cell viability analysis), SAS: 54.04
[22]
  The results of antibiotic drug inhibiting cancer cell lines (cell viability analysis), U2OS: 51.12
[23]
  The results of antibiotic drug inhibiting cancer cell lines (cell viability analysis), 786-O: 93.48
[24]
  viability: 150%

## O=C(Nc1ccc([N+](=O)[O-])cc1Cl)c1cc(Cl)ccc1O [Niclosamide (Niclocide)]
[1]
  The results of antibiotic drug inhibiting cancer cell lines (cell viability analysis), H1650: 36.77
[2]
  The results of antibiotic drug inhibiting cancer cell lines (cell viability analysis), A549: 16.68
[3]
  The results of antibiotic drug inhibiting cancer cell lines (cell viability analysis), AGS: 23.05
[4]
  The results of antibiotic drug inhibiting cancer cell lines (cell viability analysis), MKN-45: 50.74
[5]
  The results of antibiotic drug inhibiting cancer cell lines (cell viability analysis), HepG2: 37.55
[6]
  The results of antibiotic drug inhibiting cancer cell lines (cell viability analysis), Hep3B: 60.79
[7]
  The results of antibiotic drug inhibiting cancer cell lines (cell viability analysis), LoVo: 41.95
[8]
  The results of antibiotic drug inhibiting cancer cell lines (cell viability analysis), A375: 20.26
[9]
  The results of antibiotic drug inhibiting cancer cell lines (cell viability analysis), BCC: 30.66
[10]
  The results of antibiotic drug inhibiting cancer cell lines (cell viability analysis), HeLa: 25.4
[11]
  The results of antibiotic drug inhibiting cancer cell lines (cell viability analysis), C-33A: 39.49
[12]
  The results of antibiotic drug inhibiting cancer cell lines (cell viability analysis), PC-3: 42.84
[13]
  The results of antibiotic drug inhibiting cancer cell lines (cell viability analysis), TSGH-8301: 35.94
[14]
  The results of antibiotic drug inhibiting cancer cell lines (cell viability analysis), T24: 26.49
[15]
  The results of antibiotic drug inhibiting cancer cell lines (cell viability analysis), MCF-7: 33.36
[16]
  The results of antibiotic drug inhibiting cancer cell lines (cell viability analysis), MDA-MB231: 37.69
[17]
  The results of antibiotic drug inhibiting cancer cell lines (cell viability analysis), BxPC-3: 41.93
[18]
  The results of antibiotic drug inhibiting cancer cell lines (cell viability analysis), AsPC-1: 40.72
[19]
  The results of antibiotic drug inhibiting cancer cell lines (cell viability analysis), NIH-OVCAR-3: 54.68
[20]
  The results of antibiotic drug inhibiting cancer cell lines (cell viability analysis), TOV-21G: 17.59
[21]
  The results of antibiotic drug inhibiting cancer cell lines (cell viability analysis), SAS: 23.94
[22]
  The results of antibiotic drug inhibiting cancer cell lines (cell viability analysis), U2OS: 26.74
[23]
  The results of antibiotic drug inhibiting cancer cell lines (cell viability analysis), 786-O: 25.52
[24]
  viability: 23.9%

## COC(=O)Nc1nc2cc(C(=O)c3ccc(F)cc3)ccc2[nH]1 [Flubendazole (Flutelmium)]
[1]; H1650, repeated experiment
  The results of antibiotic drug inhibiting cancer cell lines (cell viability analysis), H1650: 35.69
[2]; A549, repeated experiment
  The results of antibiotic drug inhibiting cancer cell lines (cell viability analysis), A549: 22.71
[3]; AGS, repeated experiment
  The results of antibiotic drug inhibiting cancer cell lines (cell viability analysis), AGS: 28.25
[4]
  The results of antibiotic drug inhibiting cancer cell lines (cell viability analysis), MKN-45: 63.06
[5]; HepG2, repeated experiment
  The results of antibiotic drug inhibiting cancer cell lines (cell viability analysis), HepG2: 56.8
[6]; Hep3B, repeated experiment
  The results of antibiotic drug inhibiting cancer cell lines (cell viability analysis), Hep3B: 56.93
[7]; LoVo, repeated experiment
  The results of antibiotic drug inhibiting cancer cell lines (cell viability analysis), LoVo: 53.35
[8]; A375, repeated experiment
  The results of antibiotic drug inhibiting cancer cell lines (cell viability analysis), A375: 30.32
[9]; BCC, repeated experiment
  The results of antibiotic drug inhibiting cancer cell lines (cell viability analysis), BCC: 31.79
[10]; HeLa, repeated experiment
  The results of antibiotic drug inhibiting cancer cell lines (cell viability analysis), HeLa: 25.78
[11]; C-33A, repeated experiment
  The results of antibiotic drug inhibiting cancer cell lines (cell viability analysis), C-33A: 46.4
[12]
  The results of antibiotic drug inhibiting cancer cell lines (cell viability analysis), PC-3: 32.11
[13]; TSGH-8301, repeated experiment
  The results of antibiotic drug inhibiting cancer cell lines (cell viability analysis), TSGH-8301: 45.64
[14]; T24, repeated experiment
  The results of antibiotic drug inhibiting cancer cell lines (cell viability analysis), T24: 34.67
[15]; MCF-7, repeated experiment
  The results of antibiotic drug inhibiting cancer cell lines (cell viability analysis), MCF-7: 55.01
[16]; MDA-MB231, repeated experiment
  The results of antibiotic drug inhibiting cancer cell lines (cell viability analysis), MDA-MB231: 43.43
[17]; BxPC-3, repeated experiment
  The results of antibiotic drug inhibiting cancer cell lines (cell viability analysis), BxPC-3: 32.76
[18]; AsPC-1, repeated experiment
  The results of antibiotic drug inhibiting cancer cell lines (cell viability analysis), AsPC-1: 35.53
[19]; [25]
  The results of antibiotic drug inhibiting cancer cell lines (cell viability analysis), NIH-OVCAR-3: 59.15
[20]; TOV-21G, repeated experiment
  The results of antibiotic drug inhibiting cancer cell lines (cell viability analysis), TOV-21G: 24.84
[21]; SAS, repeated experiment
  The results of antibiotic drug inhibiting cancer cell lines (cell viability analysis), SAS: 45.16
[22]; U2OS, repeated experiment
  The results of antibiotic drug inhibiting cancer cell lines (cell viability analysis), U2OS: 48.74
[23]; 786-O, repeated experiment
  The results of antibiotic drug inhibiting cancer cell lines (cell viability analysis), 786-O: 20.97
[24]
  The results of antibiotic drug inhibiting cancer cell lines (cell viability analysis), HCT116: 20.63

From US10105357B2, “Indication of antibiotic drugs for preparation of cancer inhibition pharmaceutical composition” (LAUNX BIOMEDICAL CO., LTD., priority 2014, dated 2018)
